Test results from US8865659B2, “Compositions for prevention or treatment of Hepatitis C virus containing ginsenoside Rg3 as an active ingredient” (priority 2012, dated 2014).

What was measured:
[1] = test system: HCV CORE; experiment: Western blotting against HCV CORE in JFH-1 infected Huh 7.5.1 cells; type: cell-based, Hepatitis C virus (JFH-1)
Protocol: The experiment was carried out as follow. First, 200,000 Huh 7.5.1 cells were placed in a 60×15 mm cell culture dish. Next day, Japanese Fulminant Hepatitis-1 virus (JFH-1) stock vial which was stored in −70° C. refrigerator was taken out and thawed out in a container filled with ice-water. The culture medium was collected from the cultured 60×15 mm cell culture dish, washed with 1×PBS and collected, again. 1.5 ml of JFH-1 virus solution per 60×15 mm cell culture dish each was added. The dish was shaken to cover the surface sufficiently. The dish was laid in a 5% CO2 incubator at 37° C. for 6 hours and after that, the supernatant was draw out. 1×PBS was spread on the cell surface as slow as possible and after one time washing, cells were collected. 5 ml of cell culture media was added to control and JFH-1 treatments groups. At the last step of virus-infection, 5 ml CM and each […] of ginsenosides which was set to 50 mM concentration were added to the cell culture media. After that, the cell culture media was laid in a 5% CO2 incubator at 37° C. After 72 hours, the following steps were carried out.
As described in the above Example 3, the Huh 7.5.1 cells were treated with each 100 μM of seven ginsenosides (Ro, Re, Rg1, Rg2, Rg3, Rh1, Rh2). After 72 hours, a western blotting analysis was carried out for analyzing virus suppression effect against HCV CORE and cleaved PARP.
Specific western blotting analysis carried out was as follow. First, the above described samples were prepared, mixed with a sample buffer in tubes and heated at 100° C. for 10 minutes. The tubes were cooled on ice and centrifuged. The electrophoresis was carried out with the above samples and molecular weight markers, and then they were transferred to a PVDF membrane (hydrophobic). After blocking with 5% skin milk for an hour, each primary antibody was added. After staying overnight at 4° C., washings three times for every 10 minutes were conducted, and the blocking was carried out with 5% skin milk for an hour at the room temperature. After that, each secondary antibody was added, and the reaction for an hour and washing three times for every 10 minutes were conducted. Then, the membrane was stained by 1:1 mix with detection reagents A (Luminol Enhancer solution) and B (Peroxide solution) and developed with X ray film.
To examine the dose-dependent anti-virus effect of ginsenoside Rg3, western blotting analysis against cleaved PARP and HCV CORE were carried out with the samples of ginsenosides Rg3 treatment concentration at 10 μM, 25 μM, 50 μM and 100 μM each.
To examine the dose-dependent anti-virus effect of ginsenoside Rh2, western blotting analysis against cleaved PARP and HCV CORE were carried out with the samples of ginsenosides Rh2 treatment concentration at 10 μM, 25 μM and 50 μM each. […]

[2] = test system: JFH-1 virus infected Huh 7.5.1 cell; experiment: MTT assay, cytotoxicity of ginsenosides on liver cancer cell line; type: cell-based; details: 10, 25, 50 and 100 μL concentration (so in the source), 72 hours
Protocol: MTT assay was conducted to identify cytotoxicity of ginsenosides.
Specifically, the cells (Huh7.5.1) were seeded at the rate of 1×10^4 cells (in 100 μL)/well in 96 well plates, and incubated in 5% CO2 incubator for less than 24 hours. And after the samples were washed with 1×PBS once and treated with the rate of 50 ul JFH-1 virus/well, and replaced in the 5%, CO2 incubator for six hours. After taking out the cell samples from the incubator, the samples were washed with 1×PBS once and replaced in the culturing media comprising 10, 25, 50 and 100 μL concentration of the above stated seven (7) ginsenosides in Example 3, respectively. After the cells were incubated in 5% CO2 incubator for 72 hours, 20 μl of assay reagent, EZ Cytox, was seeded into each well with the care of no bubble producing. And then, the treated cells were incubated in 5% CO2 incubator for 2.5 hours, followed by examining absorbance at 420 nm with Microplate Reader (Molecular Devices, Minn.). DMSO was the solvent used when treating with ginsenoside, and both the control group and the cells infected with JFH-1 group were also treated with the solvent DMSO.

[3] = test system: phospho-NFκB; experiment: Western blotting onto NFκB and phospho-NFκB in JFH-1 infected Huh 7.5.1 cells; type: cell-based; details: 100 μM, 72 hours
Excerpt: Conducted western blotting onto NFκB and phospho-NFκB which are transcription factors of virus suppression mechanism of ginsenosides to a hepatoma cell line.
Specifically, it is known that when cells are infected with hepatitis C viruses, TNF-α in the cells increases and, apoptosis actions in the cells increases due to an anti-apoptotic factor, NFkB decreases. Additionally, identification of phosphor-NFκB among NFκB (total) is important to know activation level of NFκB.
Herein, western blotting analysis onto NFκB and phospho-NFκB, transcription factors, was carried out to identify the TNF-α mediated apoptotic signaling pathway. The TNF-α is induced by Hepatitis C. The analysis was conducted 72 hours after the samples of Huh 7.5.1 cells treated with each 100 μM of seven ginsenosides (Ro, Re, Rg1, Rg2, Rg3, Rh1, Rh2) as above stated in Example 3.
Specifically, the western blotting analysis was carried out as follow. First, the above described samples were prepared, mixed with a sample buffer in tubes and heated at 100° C. for 10 minutes. The tubes were cooled on ice and centrifuged. The electrophoresis was carried out with the prepared samples and molecular weight markers were put in. And then, they were transferred to a PVDF membrane (hydrophobic). After blocking with 5% skin milk for an hour, primary antibodies of NFκB and phospho-NFκB were added. […]

Structure (SMILES): CC(C)=CCC[C@](C)(O)[C@H]1CC[C@]2(C)[C@@H]1[C@H](O)C[C@@H]1[C@@]3(C)CC[C@H](O[C@@H]4O[C@H](CO)[C@@H](O)[C@H](O)[C@H]4O[C@@H]4O[C@H](CO)[C@@H](O)[C@H](O)[C@H]4O)C(C)(C)[C@@H]3CC[C@]12C [ginsenoside Rg3]
- virus suppression effect (HCV CORE), dose dependence ([1]; 10 μM, 25 μM, 50 μM and 100 μM): dose-dependent manner
- HCV CORE ([1]; 100 μM, 72 hours): remarkably decreased
- anti-virus effect compared with interferon ([1]; comparison with PegIFN alpha-2b): same anti-virus effect as the interferon therapeutics
- cytotoxicity (MTT assay) [2]: no cytotoxicity
- apoptosis of cells [3]: remarkably decreased
